≈ marks a conversion by molar mass, not a printed value.
Tests used:
RKO-E6 cells = assay: Alamar Blue viability assay, RKO-E6; type: cell-based, human; settings: for effect on doxorubicin's lethality in RKO-E6 cells: co-treatment with 0.5 μg/ml doxorubicin
Method: RKO colon carcinoma, human (ATCC, order # CRL-2577), RKO-E6 colon carcinoma transfected with HPV E6 inserted in pCMV.3 (ATCC, order # CRL-2578) were grown in MEM with 2 mM L-glutamine and Earle's BBS adjusted to contain 1.5 g/L NaHCO3, 0.1 mM non-essential amino acids and 1.0 mM sodium pyruvate, and supplemented with 10% fetal bovine serum, penicillin and streptomycin (pen/strep). Both cell lines were incubated at 37° C. in a humidified incubator containing 5% CO2.
The Alamar Blue assay incorporates a fluorimetric/colorimetric growth indicator that changes color in the response to chemical reduction by viable cells (Nociari 1998). Cells were seeded at a density of 3,000 cells (57 μl) per well in a 384-well black, clear-bottom plates using a syringe bulk dispenser (Zymark Sciclone ALH). Three microliters were removed from a compound daughter plate using a 384 fixed cannula head and added to the assay plate, making the final concentration 4 μg/ml. The plates were incubated for 24 h at 37° C. 10 μl of 40% Alamar Blue (Biosource Int., cat #DAL1100) solution in media was added to each well (1:10 dilution). The assay plates were incubated for 16h. Fluorescence intensity was determined using a Packard Fusion platereader with a 535 nm excitation filter and a 590 nm emission filter. The average fluorescence for the whole plate was used as a positive control. Average percentage inhibition for each well was determined using our freely available SLIMS software (Kelley et al., 2004).
The daughter plates for the 2-fold dilution series were prepared with a Zymark Sciclone ALH by diluting the replica daughter plates to obtain compound concentrations from 8 μg/ml-0.008 μg/ml (columns 8-18). Columns 1-7 were used as untreated control. RKO-E6 cells were seeded at the density of 3,000 per well in 55 μl, and 5 μl were added from the daughter plate. RKO cells were seeded at the density of 2,000 per well in 55 μl, and 5 μl were added from the daughter plate. The assay was incubated for 24 h at 37° C. 10% Alamar Blue was added to each well and the assay was incubated for 16 h (see above). Compounds for retesting were purchased from the manufacturers or from Sigma-Aldrich (see above). Stocks were prepared in DMSO at 4 mg/ml.
Each cell line (RKO, RKO-E6, HeLa and TC32) was treated with a dose combination matrix of doxorubicin and a selected hit compound. Each treatment was done in a triplicate in 384-well format. The average percent inhibition of cell proliferation, measured with Alamar Blue, was determined using the following formula: […]

[1] = Rescue and toxicity of Compound 164 and analogs (Table 4); settings: for TC50: Table 4, toxicity; for Max % Toxicity / Max % Rescue: Table 4, cell model not stated
p53 = assay: Western blot of p53 (p21, MDM2) levels; type: cell-based, human; settings: RKO-E6 cells; in words
Method: Protein content was quantified using a BioRad protein assay reagent (BioRad, cat #500-0006). Equal amounts of protein were resolved on SDS-polyacrylamide gels. Proteins were transferred onto a PVDF membrane, blocked with 5% milk, and incubated with the appropriate primary and secondary antibodies. […] To test for equivalent loading in each lane, blots were stripped, blocked and probed with an anti-eIF-4E antibody.

[2] = test system: PC12 expressing Q103 exon 1 htt; assay: PC12 HD model, Alamar Blue viability; type: cell-based; settings: for EC50: Rattus norvegicus, PC-12, unit inferred; for PC12 rescue: percent increase in viability in compound treated cells above DMSO treated: — = no activity in the assay (footnote n.a.)
Method: For enhanced stability the repeat portion consists of alternating CAG/CAA repeats. […] Mutant (mut) htt was induced by the ecdysone receptor agonist, tebufenozide.
For the PC12 assay, 7500 cells/well were plated in 384-well plates in 57 μl of PC12 medium with tebufenozide (1 μM). Compounds (3 μl) from daughter plates were added to the cells and incubated at 37° C. After 48 h, 20 μl of 40% Alamar Blue (Biosource, CA) in PC12 media was added per well and cells incubated for 12 h at 37° C. […] Fluorescence intensity was determined using a Packard Fusion plate reader with an excitation filter centered on 535 nm and an emission filter centered on 590 nm. Average percentage inhibition at each concentration was calculated.

N548 mutant cells = assay: cells; settings: Rattus norvegicus; for maximal fold induction: 72 h, read-out: N548 Mut: Max, maximum rescue expressed as fold over DMSO treated N548 mutant cells; for EC50: read-out: EC50 based on activity in N548 mutant cells
Method: Embryonic rat striatal neurons were conditionally immortalized by stably transfecting a temperature-sensitive SV40 large T-antigen (T-ag) to generate the ST14A cell line. ST14A cells proliferate at the permissive temperature (33° C.), but stop dividing at 39° C., as a result of T-ag degradation. […] As htt protein context modulates polyQ toxicity, testing these different length htt proteins could provide insight into the basis for context dependence.
ST14A Assay System: Calcein acetoxylmethyl ester (AM) (Molecular Probes, Eugene, Oreg.) is a non-fluorescent, membrane-permeable compound that is cleaved by intracellular esterases, which subsequently forms the anionic, fluorescent compound, calcein, that cannot permeate the cell membrane. […] A fluorescence viability assay, that is based on conversion of a non-fluorescent substrate (calcein AM) to a fluorescent product by nonspecific esterases in live cells, was employed to monitor cell death in wild type (wt) ST14A-Htt and mut ST14A-Htt cell lines. Cell death is indicated by a decrease in fluorescence. […] 3 μl of each compound was transferred from daughter plates to triplicate assay plates for a final assay concentration of 4 μg/ml in 0.1% DMSO (10 μM for NINDS compounds). Cells were incubated at 33° C. for 3 h to enhance attachment and then shifted to 39° C. (with 5% CO2). After 3 days (d), cells were washed 10 times with phosphate buffered saline (PBS) leaving 20 μl residual PBS per well, and 20 μl of 2 μg/ml calcein AM (Molecular probes) in PBS was added per well. […] The fluorescence intensity in each well was normalized to the median of each plate. The median normalized fluorescence of each triplicate assay wells was determined. A well with more than 50% increase in intensity above the median signal intensity was considered a “hit.”
Assay Development: An assay was developed for detecting mutant htt-induced cell death in ST14A cells in a 384-well plate format. A calcein AM-based method was used to detect cell viability, and optimized the cell number and time course for this method. […] A cell number titration was performed to determine the cell density at which calcein fluorescence was not saturated and the coefficient of variation (CV) was low (FIG. 14A-B). A low CV is critical for a high-throughput assay as it decreases noise and enhances sensitivity. […] Next, the kinetics of the fluorescence signal were determined.
Next, the serum concentrations that induce cell death in these cells were determined. Cells were seeded in decreasing serum (IFS) concentrations (5 to 0%), and cell viability was assayed after 3 d using the calcein AM assay (FIG. 14E).
A Z′ value of greater than 0 is required for a usable assay, with a maximum value of 1.0 for an ideal assay. For the assay, calcein fluorescence was used on the day of seeding to represent 100% rescue. The difference in calcein fluorescence signal on the day of seeding and after different number of days under serum deprivation was determined and used to calculate the Z′ factor. […] About 47,000 compounds were assayed in a 384-well plate format in triplicate to enhance the reliability of the primary screen.

For CCCCCC(O)C=CC1CCC(=O)C1CCCCCCC(=O)O (stereo not shown) [11-deoxyprostaglandin E1], the “effect on doxorubicin's lethality in RKO-E6 cells” value (“effect on doxorubicin's lethality” below) (RKO-E6 cells; 24 h, in words) was “showed no activity”.
In the case of COc1ccccc1C1(CCN(Cc2ccccc2)C(=O)c2ccco2)CCOC(C)(C)C1 (stereo not shown) [Compound 164-10, 2-Furancarboxamide, N-(phenylmethyl)-N-[2-[tetrahydro-4-(2-methoxyphenyl)-2,2-dimethyl-2H-pyran-4-yl]ethyl]-(9CI)], the EC50 [1] is reported as 200 nM, the TC50 [1] is reported as 1700 nM and the “Max % Toxicity” value [1] is reported as 62.27%.
With COc1ccc(C2c3cc(OC)c(OC)cc3CCN2C(=O)c2ccco2)cc1OC (stereo not shown) [Compound 164-11, Isoquinoline, 1-(3,4-dimethoxyphenyl)-2-(2-furanylcarbonyl)-1,2,3,4-tetrahydro-6,7-dimethoxy-(9CI)] the “Max % Rescue” value [1] was 7.95%.
For CC(=O)N(CCC1(c2ccc(C)cc2)CCOC(C(C)C)C1)Cc1ccco1 (stereo not shown) [Compound 164-12, N-(2-furylmethyl)-N-{2-[2-isopropyl-4-(4-methylphenyl)tetrahydro-2H-pyran-4-yl]ethyl}acetamide], the TC50 [1] was 8000 nM and the “Max % Toxicity” value [1] was 60.37%.
For CC(c1ccccc1)N(CCC(c1ccccc1)C1CCOC(C)(C)C1)C(=O)c1ccco1 (stereo not shown) [Compound 164-13, N-[3-(2,2-dimethyltetrahydro-2H-pyran-4-yl)-3-phenylpropyl]-N-(1-phenylethyl)-2-furamide], the TC50 [1] was 4000 nM and the “Max % Toxicity” value [1] was 55.74%.
For COc1ccc(CN(CCC(c2ccc(OC)cc2)C2CCOC(C)(C)C2)C(=O)c2ccco2)cc1 (stereo not shown) [Compound 164-14, N-[3-(2,2-dimethyltetrahydro-2H-pyran-4-yl)-3-(4-methoxyphenyl)propyl]-N-(4-methoxybenzyl)-2-furamide], the EC50 [1] was 200 nM, the TC50 [1] was 2000 nM and the “Max % Toxicity” value [1] was 53.80%.
For CCC(=O)N(CCC1(c2ccc(F)cc2)CCOC(C)(C)C1)Cc1ccc(OC)c(OC)c1 (stereo not shown) [Compound 164-15, Propanamide, N-[(3,4-dimethoxyphenyl)methyl]-N-[2-[4-(4-fluorophenyl)tetraydro-2,2-dimethyl-2H-pyran-4-yl}ethyl]-(9CI)], the “Max % Rescue” value [1] was 48.92%.
For CC1(C)CC(CCN(Cc2ccccc2)C(=O)c2ccco2)(c2ccccc2)CCO1 (stereo not shown) [Compound 164-16, 2-Furancarboxamide, N-(phenylmethyl)-N-[2-(tetrahydro-2,2-dimethyl-4-phenyl-2H-pyran-4-yl)ethyl]-(9CI)], the CC50 [1] was 8000 nM, the EC50 [1] was 200 nM and the “Max % Toxicity” value [1] was 53.14%.
For O=C(c1ccco1)N1CCN(Cc2ccc3c(c2)OCO3)CC1 [Compound 164-17, 1-(1,3-benzodioxol-5-ylmethyl)-4-(2-furoyl)piperazine], the “Max % Toxicity” value [1] was 31.31%.
With COc1cccc(CN2CCN(C(=O)c3ccco3)CC2)c1 [Compound 164-18, 1-(2-furoyl)-4-(3-methoxybenzyl)piperazine] the “Max % Toxicity” value [1] was 12.00%.
With COc1ccc(CN2CCN(C(=O)c3ccco3)CC2)cc1OC [Compound 164-19, 1-(3,4-dimethoxybenzyl)-4-(2-furoyl)piperazine] the EC50 [1] was 18900 nM and the “Max % Toxicity” value [1] was 27.77%.
With COc1ccc(CN(CCC2(c3ccccc3)CCOC(C)(C)C2)C(=O)c2ccco2)cc1OC (stereo not shown) [Compound 164] the EC50 [1] was 10000 nM and the “Max % Toxicity” value [1] was 1.27%.
With CC[C@@]1(O)C(=O)OCc2c1cc1n(c2=O)Cc2cc3ccccc3nc2-1 [camptothecin, S-(+)-camptothecin] the inhibition at 0.5 µg/mL (RKO-E6 cells; Homo sapiens, RKOE6, 0.5 μg/ml alone, 24 h, read-out: growth inhibition by drug alone) was 20% and the “p53, p21, MDM2 levels” value (p53) was “caused p53 to accumulate”.
With CCCCCCCCCCCCCCCC[N+](C)(C)C.[Br-] [cetrimonium bromide, cetyltrimethylammonium bromide] the “effect on doxorubicin's lethality” value (RKO-E6 cells; 24 h, in words) was “selectively increased doxorubicin's lethality” and the “effect on camptothecin's lethality” value (RKO-E6 cells; co-treatment with camptothecin, in words) was “did not synergize with camptothecin”.
In the case of O[C@H]1[C@H]2c3cc4c(cc3CN3CC[C@H](C[C@@H]1O)[C@H]23)OCO4 [dihydrolycorine], the “effect on doxorubicin's lethality” value (RKO-E6 cells; 24 h, in words) is reported as “potentiated doxorubicin's lethality”.
With CC[C@H]1CN2CCc3cc(OC)c(OC)cc3[C@@H]2C[C@@H]1C[C@H]1NCCc2cc(OC)c(OC)cc21 [emetine] the “effect on doxorubicin's lethality” value (RKO-E6 cells; 24 h, in words) was “potentiated doxorubicin's lethality”.
For NC(=O)NO [hydroxyurea], the “effect on doxorubicin's lethality” value (RKO-E6 cells; 24 h, in words) was “only modest upregulation of doxorubicin's lethality”.
In the case of NNc1nnc(-c2ccccc2)c2ccccc12 [revertin-7], the EC50 [2] is reported as 2 µg/mL (≈ 8.46 µM), the “PC12 rescue: percent increase in viability in compound treated cells above DMSO treated” value (shortened to “PC12 rescue: percent increase”) [2] is reported as 18% and the maximal fold induction (N548 mutant cells) is reported as 2. The EC50 (N548 mutant cells) was 1 µg/mL (≈ 4.23 µM).
For CCCc1ccc(CC2=C(O)C(=O)c3ccccc3C2=O)cc1 [revertin-8], the EC50 [2] was 2 µg/mL (≈ 6.53 µM), the “PC12 rescue: percent increase” value [2] was 15% and the maximal fold induction (N548 mutant cells) was 3. For the same molecule, the EC50 (N548 mutant cells) was 2 µg/mL (≈ 6.53 µM).
With CCCCCCCCC(=O)N(Cc1ccco1)C(C)c1nc2ccccc2c(=O)n1-c1cc(C)ccc1C (stereo not shown) [revertin-9] the EC50 [2] was 25 µg/mL (≈ 48.7 µM), the “PC12 rescue: percent increase” value [2] was 25% and the maximal fold induction (N548 mutant cells) was 2. It also gave an EC50 (N548 mutant cells) of 1 µg/mL (≈ 1.95 µM).
In the case of CCCCc1ccc(C(=O)N(CCC(=O)N2CCC(Cc3ccccc3)CC2)Cc2ccco2)cc1 [revertin-11], the EC50 [2] is reported as 30 µg/mL (≈ 61.6 µM), the “PC12 rescue: percent increase” value [2] is reported as 27% and the maximal fold induction (N548 mutant cells) is reported as 2.5. The EC50 (N548 mutant cells) was 2 µg/mL (≈ 4.11 µM).
In the case of “Propanamide, N-[(3,4-dimethoxyphenyl)methyl]-N-[2-(tetrahydro-2,2-dimethyl-4-phenyl-2H-pyran-4-yl)ethyl]-(9CI) [Compound 164-8]”, the “Max % Rescue” value [1] is reported as 51.48%.

Source: US20100022637A1, “IDENTIFICATION OF ANTI-CANCER COMPOUNDS AND COMPOUNDS FOR TREATING HUNTINGTON'S DISEASE AND METHODS OF TREATMENT THEREOF” (THE TRUSTEES OF COLUMBIA UNIVERSITY IN THE CITY OF NEW YORK, priority 2005, published 2010)
